From patent US8026258B2, “Aryloxyalkylcarbamate-type derivatives, preparation method thereof and use of same in therapeutics” (Sanofi-Aventis, priority 2004, dated 2011) come the findings set out here.

Structures are written as SMILES.

The test system of one data set is male OF1 mice. The data set can be described thus: Analgesia test: PBQ (phenylbenzoquinone)-induced abdominal stretches. It is filed as in vivo, mouse. The note with it: oral, dose of 1 mg/kg, at 2 hours, PBQ 2 mg/kg i.p. The method, then:
The in vivo activity of the compounds of the invention was evaluated in an analgesia test.
Accordingly, intraperitoneal (i.p.) administration of PBQ (phenylbenzoquinone, 2 mg/kg in a 0.9% sodium chloride solution containing 5% of ethanol) to male OF1 mice weighing 25 to 30 g causes abdominal stretches, on average 30 twists or contractions during the period from 5 to 15 minutes after injection. The test compounds are administered orally in suspension in Tween 80 at 0.5%, 60 minutes or 120 minutes before the administration of PBQ. […] For example, compound 58 of the table reduces by 51% the number of stretches induced by PBQ, at a dose of 1 mg/kg at 2 hours.
Turning to `NC(=O)COC(=O)NCCCCOc1cccc2ccccc12` [Compound 58, 2-amino-2-oxoethyl [4-(1-naphthalenyloxy]butyl]-carbamate], the “reduction of the number of stretches induced by PBQ” value is 51%.

System in another data set: not given
Test: not given
Conditions: not given
One may read the melting point as the temperature, or range, at which the solid turns liquid. `CNC(=O)COC(=O)NCCOc1ccc(Cl)cc1` [Compound 1, 2-(methylamino)-2-oxoethyl{2-[(4-chlorophenyl)-oxy]ethyl}carbamate] displayed a melting point of 147 to 149 °C. Molecule `N#Cc1ccc(OCCNC(=O)OCC(N)=O)cc1` [Compound 11, 2-amino-2-oxoethyl (2-[(4-cyanophenyl)oxy]ethyl)-carbamate] returned a melting point of 204 to 206 °C. Regarding `NC(=O)COC(=O)NCCCCOc1cccc2ccccc12` [Compound 58, 2-amino-2-oxoethyl [4-(1-naphthalenyloxy]butyl]-carbamate], the melting point is 80 to 82 °C. `NC(=O)COC(=O)N1CCC(COc2cccc3ccccc23)C1` (centres unmarked) [Compound 83, 2-amino-2-oxoethyl 3-[(1-naphthalenyloxy)methyl]-1-pyrrolidinecarboxylate] returned a melting point of 161 to 163 °C.

Regarding `CNC(=O)COC(=O)N1CCC(Oc2ccc(-c3ccc(F)cc3)cc2)CC1` [Compound 85, 2-(methylamino)-2-oxoethyl 4-[(4′-fluoro-4-biphenyl)-oxy]-1-piperidinecarboxylate], the melting point lay in the range of 117 to 119 °C. As to `CNC(=O)COC(=O)N1CCC(COc2ccc(Br)cc2)CC1` [Compound 120, 2-(methylamino)-2-oxoethyl 4-{[(4-bromophenyl)oxy]-methyl}-1-piperidinecarboxylate], the melting point lay within 163 to 165 °C. `NC(=O)COC(=O)N1CCC(COc2cccc3ccccc23)CC1` [Compound 137, 2-amino-2-oxoethyl 4-[(1-naphthalenyloxy)methyl]-1-piperidinecarboxylate] showed a melting point of 135 to 136 °C. Regarding `NC(=O)COC(=O)N1CCC(COc2ccc3cccnc3c2)CC1` [Compound 148, 2-amino-2-oxoethyl 4-[(7-quinolinyloxy)methyl]-1-piperidinecarboxylate], the melting point was in the range of 137 to 139 °C. In turn, `CNC(=O)COC(=O)N1CCC(COc2ccc(-c3ccc(C(F)(F)F)cc3)cc2)CC1` [Compound 154, 2-(methylamino)-2-oxoethyl 4-{[(4′-(trifluoromethyl)-4-biphenyl)oxy]methyl}-1-piperidinecarboxylate] returned a melting point of 197 to 199 °C. On to `CNC(=O)COC(=O)N1CCC(CCOc2ccc(Br)cc2)CC1` [Compound 168, 2-(methylamino)-2-oxoethyl 4-{2-[(4-bromophenyl)-oxy]ethyl}-1-piperidinecarboxylate], for which the melting point is 101 to 103 °C. Same read-out and setting: the same measure for `NC(=O)COC(=O)N1CCC(CCOc2ccc3ccncc3c2)CC1` [Compound 183, 2-amino-2-oxoethyl 4-[2-(7-isoquinolinyloxy)ethyl]-1-piperidinecarbamate]: 179 to 181 °C. Take `CNC(=O)COC(=O)N1CCC(CCOc2ccc(-c3ccc(Cl)cc3)cc2)CC1` [Compound 186, 2-(methylamino)-2-oxoethyl 4-{2-[(4′-chloro-4-biphenyl)oxy]ethyl}-1-piperidinecarboxylate]: the melting point was 104 to 106 °C.

Another data set deals with T1, FAAH (Fatty Acid Amide Hydrolase) (Mus musculus, UniProt O08914).
T1 construct: Membrane homogenates are prepared at the time of use by homogenizing the tissues in a Polytron; from tissue; host or cells: mouse brain (minus the cerebellum), membrane homogenate
T1 sequence (O08914 1-579): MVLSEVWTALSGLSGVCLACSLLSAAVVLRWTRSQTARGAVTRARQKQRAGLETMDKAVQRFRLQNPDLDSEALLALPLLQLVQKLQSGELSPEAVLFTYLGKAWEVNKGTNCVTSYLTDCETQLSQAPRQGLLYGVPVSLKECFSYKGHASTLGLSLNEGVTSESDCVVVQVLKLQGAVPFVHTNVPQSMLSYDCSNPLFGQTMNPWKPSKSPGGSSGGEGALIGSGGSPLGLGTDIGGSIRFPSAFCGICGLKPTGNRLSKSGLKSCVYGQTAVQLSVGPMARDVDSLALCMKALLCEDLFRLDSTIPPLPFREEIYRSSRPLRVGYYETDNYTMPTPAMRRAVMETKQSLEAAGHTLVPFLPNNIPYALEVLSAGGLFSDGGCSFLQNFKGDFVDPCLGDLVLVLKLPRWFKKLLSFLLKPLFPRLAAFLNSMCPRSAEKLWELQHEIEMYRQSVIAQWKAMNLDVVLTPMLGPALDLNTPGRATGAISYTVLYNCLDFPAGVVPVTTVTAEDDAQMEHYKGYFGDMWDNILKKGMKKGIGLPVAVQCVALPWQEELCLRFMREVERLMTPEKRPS
As to the kind of experiment: Radioenzymatic FAAH inhibition assay (hydrolysis of anandamide [ethanolamine 1-3H]) in mouse brain membrane homogenates. The data set is classed as biochemical. Particulars: mouse brain membrane homogenate; anandamide 10 μM; 15 minutes at 25° C.; read-out: IC50 (concentration inhibiting by 50% the control enzyme activity of FAAH). The method, then: The compounds of the invention were subjected to pharmacological tests permitting determination of their inhibitory effect on the enzyme FAAH (Fatty Acid Amide Hydrolase).
Accordingly, mouse brains (minus the cerebellum) are removed and stored at −80° C. Membrane homogenates are prepared at the time of use by homogenizing the tissues in a Polytron in a 10 mM Tris-HCl buffer (pH 8.0) containing 150 mM NaCl and 1 mM EDTA. The enzyme reaction is subsequently conducted in 70 μl of buffer containing bovine serum albumin without fatty acids (1 mg/ml). In succession, the test compounds, at various concentrations, anandamide [ethanolamine 1-^3H] (specific activity: 15-20 Ci/mmol) diluted to 10 μM with cold anandamide, and the membrane preparation (400 μg of frozen tissue per assay) are added. After 15 minutes at 25° C. the enzyme reaction is terminated by adding 140 μl of chloroform/methanol (2:1). The mixture is stirred for 10 minutes and then centrifuged for 15 minutes at 3500 g. An aliquot (30 μl) of the aqueous phase containing the ethanolamine [1-^3H] is counted by liquid scintillation.
With `NC(=O)COC(=O)NCCCCOc1cccc2ccccc12` [Compound 58, 2-amino-2-oxoethyl [4-(1-naphthalenyloxy]butyl]-carbamate], the IC50 amounted to 470 nM.
